Experimental data as given in patent publication US12264170B2, “Antimicrobial organosilanes” (TOPIKOS SCIENTIFIC, INC., priority 2019, dated 2025).
In brackets after ≈: the same amount, converted by molar mass.

Legend:
[1] = test system: Staphylococcus aureus ATCC 33591; experiment: MIC microdilution assay; format: cell-based; conditions: S. aureus ATCC 33591; CAMHB; 35±2° C. 18 to 20 hours; two values given
Description: (§1) Strain numbers starting with “ATCC” were acquired from the American Type Culture Collection (Manassas, VA), while strain numbers starting with “CDC” were acquired from the Centers for Disease Control and Prevention (Atlanta, GA). All strains were maintained as −80° C. frozen glycerol stocks. S. aureus and P. aeruginosa were grown overnight on Tryptic Soy Agar (TSA) plates at 35±2° C., ambient atmosphere, while S. pyogenes was grown overnight on TSA+5% defibrinated sheep blood at 35±2° C., 5% CO2. All fungal species (i.e. C. albicans, C. auris and C. herbarum) were grown on Sabouraud Dextrose Agar (SDA) plates. C. herbarum was grown at 25±2° C. for 5 to 7 days, while all other fungal strains were grown at 35±2° C. overnight.
(§2) Test articles Compound 2 (batch #2G13A0.368) and Compound 23 (batch #2G17A0.372) were received and stored at 4° C. The antibiotic Tobramycin and antifungal Amphotericin B were used as quality control (QC) compounds for the MIC assay. Stock solutions of 3.2 mg/mL Tobramycin (Sigma-Aldrich, cat #T1783-500MG) and 3.2 mg/mL Amphotericin B (CP Lab Chemicals, cat #TOK-A007-1G) were prepared in sterile ultrapure water.
(§3) For bacteria strains, a few colonies of each strain were collected with a sterile swab and used to make a McFarland 0.5 standard solution (approximately 1×10^8 CFU/mL) in sterile PBS. The McFarland was then diluted 1:180 in Cation Adjusted Muller-Hinton Broth (CAMHB) for S. aureus and P. aeruginosa, and in CAVHIIB+5% defibrinated sheep blood for S. pyogenes. 90 μL of this inoculum was combined with 10 μL of the 10× test article in a 96-well plate for a final concentration of 1×.
(§4) All bacterial-strain MIC 96-well plates were incubated at 35±2° C. for 18 to 20 hours, while all Candida MIC 96-well plates were incubated at 35±2° C. for 24 to 48 hours. C. herbarum MIC 96-well plates were incubated at 25±2° C. for 3 to 5 days, until growth was visible in the growth control wells. After incubation, the 96-well plates were examined visually and on a spectrophotometer at absorbance OD650. […]

P. aeruginosa ATCC 27853 = experiment: MIC microdilution assay; format: cell-based, Pseudomonas aeruginosa; conditions: CAMHB, 35±2° C. 18 to 20 hours, two values given
Description: as §1, §2, §3, §4

S. pyogenes ATCC 51339 = experiment: MIC microdilution assay; format: cell-based, Steptococcus pyogenes; conditions: S. pyogenes ATCC 51339; broth +5% defibrinated sheep blood; 35±2° C. 18 to 20 hours; two values given
Description: as §1, §2, §3, §4

[2] = test system: Candida albicans ATCC 90028; experiment: MIC microdilution assay; format: cell-based; conditions: C. albicans ATCC 90028; RPMI media; 35±2° C. 24 to 48 hours; two values given
Description: as §1, §2, §3
(§5) For the yeasts C. albicans and C. auris, a McFarland 0.5 standard solution in sterile PBS was similarly prepared (approximately 1×10^6 CFU/mL) and was subsequently diluted 1:180 in RPMI 1640 media buffered with 0.165 M MOPS at pH 7.0 (herein referred to as “RPMI media”). 90 μL of the Candida inoculum was combined with 10 μL of the 10× test article in a 96-well plate for a final concentration of 1×.
(§6) All bacterial-strain MIC 96-well plates were incubated at 35±2° C. for 18 to 20 hours, while all Candida MIC 96-well plates were incubated at 35±2° C. for 24 to 48 hours. C. herbarum MIC 96-well plates were incubated at 25±2° C. for 3 to 5 days, until growth was visible in the growth control wells. After incubation, the 96-well plates were examined visually and on a spectrophotometer at absorbance OD650. MIC is defined as the lowest concentration of a compound in which no visible growth is observed.

Candida auris CDC 0381 = experiment: MIC microdilution assay; format: cell-based; conditions: C. auris CDC 0381; RPMI media; 35±2° C. 24 to 48 hours; two values given
Description: as §1, §2, §3, §5, §6

[3] = test system: Cladosporium herbarum ATCC MYA-4682; experiment: MIC microdilution assay; format: cell-based; conditions: C. herbarum ATCC MYA-4682; RPMI media; 25±2° C. 3 to 5 days; two values given
Description: as §1
Test articles Compound 2 (batch #2G13A0.368) and Compound 23 (batch #2G17A0.372) were received and stored at 4° C. The antibiotic Tobramycin and antifungal Amphotericin B were used as quality control (QC) compounds for the MIC assay. […]
All bacterial-strain MIC 96-well plates were incubated at 35±2° C. for 18 to 20 hours, while all Candida MIC 96-well plates were incubated at 35±2° C. for 24 to 48 hours. […] After incubation, the 96-well plates were examined visually and on a spectrophotometer at absorbance OD650. […]

[4] = test system: Candida albicans ATCC 90028; experiment: MIC microdilution assay (Example 32); format: cell-based; conditions: C. albicans ATCC 90028 (quality control); RPMI media; 35±2° C. 24 to 48 hours; two values given
Description: (§7) Strain IDs starting with “ATCC” were acquired from the American Type Culture Collection (Manassas, VA), strain IDs starting with “Eurofins” were acquired from Eurofins (Herndon, VA), while strain IDs starting with “CDC” were acquired from the Centers for Disease Control and Prevention (Atlanta, GA). All strains were maintained as −80° C. frozen glycerol stocks. S. aureus and P. aeruginosa were grown overnight on Tryptic Soy Agar (TSA) plates at 35±2° C., ambient atmosphere, while S. pyogenes was grown overnight on TSA+5% defibrinated sheep blood at 35±2° C., 5% CO2. C. jejuni was grown for 48 hours on TSA+5% defibrinated sheep blood at 35±2° C., in a microaerophilic environment generated by CampyGen sachet. All fungal species (i.e. C. albicans and C. auris) were grown overnight on Sabouraud Dextrose Agar (SDA) plates at 35±2° C., ambient atmosphere.
as §2, with “Test article” for “Test articles”, “Compound 1” for “Compound 2”, “(batch #7G30A9.203) was” for “(batch #2G13A0.368) and Compound 23 (batch #2G17A0.372) were received and”
as §3, with “aeruginosa. S. pyogenes McFarland was diluted 1:180” for “aeruginosa, and”, “CAMHB+5%” for “CAVHIIB+5%”, “blood, while C. jejuni McFarland was diluted 1:180 in CAMHB+5% laked horse blood.” for “blood for S. pyogenes.”
as §5
(§8) Except for C. jejuni, all bacterial-strain MIC 96-well plates were incubated at 35±2° C. for 18 to 20 hours, ambient atmosphere. C. jejuni was incubated at 35±2° C. for 48 hours, under microaerophilic condition. All Candida MIC 96-well plates were incubated at 35±2° C. for 24 to 48 hours, ambient atmosphere, until growth in control wells were observed. After incubation, the 96-well plates were examined visually and on a spectrophotometer at absorbance OD650. MIC is defined as the lowest concentration of a compound in which no visible growth is observed.

Candida auris CDC 0385 = experiment: MIC microdilution assay (Example 32); format: cell-based; conditions: C. auris CDC 0385; RPMI media; 35±2° C. 24 to 48 hours; two values given
Description: as §7
as §2, with “Test article” for “Test articles”, “Compound 1” for “Compound 2”, “(batch #7G30A9.203) was” for “(batch #2G13A0.368) and Compound 23 (batch #2G17A0.372) were received and”
as §3, with “aeruginosa. S. pyogenes McFarland was diluted 1:180” for “aeruginosa, and”, “CAMHB+5%” for “CAVHIIB+5%”, “blood, while C. jejuni McFarland was diluted 1:180 in CAMHB+5% laked horse blood.” for “blood for S. pyogenes.”
as §5, §8

[5] = test system: Acinetobacter baumannii Eurofins 1674627; experiment: MIC microdilution assay (Example 32); format: cell-based; conditions: A. baumannii Eurofins 1674627; 35±2° C. 18 to 20 hours; two values given
Description: as §7
as §2, with “Test article” for “Test articles”, “Compound 1” for “Compound 2”, “(batch #7G30A9.203) was” for “(batch #2G13A0.368) and Compound 23 (batch #2G17A0.372) were received and”
as §3, with “aeruginosa. S. pyogenes McFarland was diluted 1:180” for “aeruginosa, and”, “CAMHB+5%” for “CAVHIIB+5%”, “blood, while C. jejuni McFarland was diluted 1:180 in CAMHB+5% laked horse blood.” for “blood for S. pyogenes.”
as §8

[6] = test system: Campylobacter jejuni CDC 0413; experiment: MIC microdilution assay (Example 32); format: cell-based; conditions: C. jejuni CDC 0413; CAMHB+5% laked horse blood; 35±2° C. 48 hours, microaerophilic; two values given
Description: as §7
as §2, with “Test article” for “Test articles”, “Compound 1” for “Compound 2”, “(batch #7G30A9.203) was” for “(batch #2G13A0.368) and Compound 23 (batch #2G17A0.372) were received and”
as §3, with “aeruginosa. S. pyogenes McFarland was diluted 1:180” for “aeruginosa, and”, “CAMHB+5%” for “CAVHIIB+5%”, “blood, while C. jejuni McFarland was diluted 1:180 in CAMHB+5% laked horse blood.” for “blood for S. pyogenes.”
as §8

[7] = test system: Pseudomonas aeruginosa ATCC 27853; experiment: MIC microdilution assay (Example 32); format: cell-based; conditions: P. aeruginosa ATCC 27853 (quality control); CAMHB; 35±2° C. 18 to 20 hours; two values given
Description: as §7
as §2, with “Test article” for “Test articles”, “Compound 1” for “Compound 2”, “(batch #7G30A9.203) was” for “(batch #2G13A0.368) and Compound 23 (batch #2G17A0.372) were received and”
as §3, with “aeruginosa. S. pyogenes McFarland was diluted 1:180” for “aeruginosa, and”, “CAMHB+5%” for “CAVHIIB+5%”, “blood, while C. jejuni McFarland was diluted 1:180 in CAMHB+5% laked horse blood.” for “blood for S. pyogenes.”
as §8

[8] = test system: Pseudomonas aeruginosa CDC 0248; experiment: MIC microdilution assay (Example 32); format: cell-based; conditions: P. aeruginosa CDC 0248; CAMHB; 35±2° C. 18 to 20 hours; two values given
Description: as §7
as §2, with “Test article” for “Test articles”, “Compound 1” for “Compound 2”, “(batch #7G30A9.203) was” for “(batch #2G13A0.368) and Compound 23 (batch #2G17A0.372) were received and”
as §3, with “aeruginosa. S. pyogenes McFarland was diluted 1:180” for “aeruginosa, and”, “CAMHB+5%” for “CAVHIIB+5%”, “blood, while C. jejuni McFarland was diluted 1:180 in CAMHB+5% laked horse blood.” for “blood for S. pyogenes.”
as §8

[9] = test system: Pseudomonas aeruginosa Eurofins 1674623; experiment: MIC microdilution assay (Example 32); format: cell-based; conditions: P. aeruginosa Eurofins 1674623; CAMHB; 35±2° C. 18 to 20 hours; two values given
Description: as §7
as §2, with “Test article” for “Test articles”, “Compound 1” for “Compound 2”, “(batch #7G30A9.203) was” for “(batch #2G13A0.368) and Compound 23 (batch #2G17A0.372) were received and”
as §3, with “aeruginosa. S. pyogenes McFarland was diluted 1:180” for “aeruginosa, and”, “CAMHB+5%” for “CAVHIIB+5%”, “blood, while C. jejuni McFarland was diluted 1:180 in CAMHB+5% laked horse blood.” for “blood for S. pyogenes.”
as §8

[10] = test system: Streptococcus pyogenes Eurofins 2065755; experiment: MIC microdilution assay (Example 32); format: cell-based; conditions: S. pyogenes Eurofins 2065755; CAMHB+5% defibrinated sheep blood; 35±2° C. 18 to 20 hours; two values given
Description: as §7
as §2, with “Test article” for “Test articles”, “Compound 1” for “Compound 2”, “(batch #7G30A9.203) was” for “(batch #2G13A0.368) and Compound 23 (batch #2G17A0.372) were received and”
as §3, with “aeruginosa. S. pyogenes McFarland was diluted 1:180” for “aeruginosa, and”, “CAMHB+5%” for “CAVHIIB+5%”, “blood, while C. jejuni McFarland was diluted 1:180 in CAMHB+5% laked horse blood.” for “blood for S. pyogenes.”
as §8

## C[C@@H]1[C@H](O)[C@@H](C)/C=C/C=C/C=C/C=C/C=C/C=C/C=C/[C@H](O[C@@H]2O[C@H](C)[C@@H](O)[C@H](N)[C@@H]2O)C[C@@H]2O[C@](O)(C[C@@H](O)C[C@@H](O)[C@H](O)CC[C@@H](O)C[C@@H](O)CC(=O)O[C@H]1C)C[C@H](O)[C@H]2C(=O)O [Amphotericin B]
[1]
  MIC: >32 µg/mL
P. aeruginosa ATCC 27853
  MIC: >32 µg/mL
S. pyogenes ATCC 51339
  MIC: >32 µg/mL
[2]
  MIC: 2 µg/mL (≈ 2.16 µM)
Candida auris CDC 0381
  MIC: 1 µg/mL (≈ 1.08 µM)
[3]
  MIC: ≤0.03 µg/mL
[4]
  MIC: 1 µg/mL (≈ 1.08 µM)
Candida auris CDC 0385
  MIC: 4 µg/mL (≈ 4.33 µM)
[5]
  MIC: >32 µg/mL
[6]
  MIC: >32 µg/mL
[7]
  MIC: >32 µg/mL
[8]
  MIC: >32 µg/mL
[9]
  MIC: >32 µg/mL
[10]
  MIC: >32 µg/mL
